Data from patent publication US9302999B2, “Substituted triazoles as herbicides” (E. I. DU PONT DE NEMOURS AND COMPANY, priority 2012, dated 2016).

Assays:
Type in all cases: in vivo
[1] = system: wheat, spring (spring wheat, Triticum aestivum); experiment: Test D pre-/postemergence: wheat, spring
Summary of the method: (§1)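 Species were sown in silt loam and sprayed preemergence, or grown in peat/vermiculite medium and sprayed postemergence at the 1- to 4-leaf stage (2–18 cm), with compounds in a surfactant-containing solvent. Injury was visually rated against untreated controls after 14–21 days, on a 0 (no effect) to 100 (complete control) scale.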

[2] = system: bermudagrass (Cynodon dactylon); experiment: Test C pre-/postemergence: bermudagrass
Summary of the method: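 Preemergence on seeds in loam/sand, postemergence on 2–18 cm (1–4-leaf) plants in peat-based medium; compounds in non-phytotoxic solvent with surfactant. After 13–15 days in greenhouse, visual rating versus controls, 0 (no effect) to 100 (complete control).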

[3] = system: barnyardgrass (Echinochloa crus-galli); experiment: Test B flooded paddy: barnyardgrass; details: Flood; 250 g ai/ha; applied to paddy water at 2-leaf stage; visually evaluated after 13 to 15 days
Summary of the method: (§2)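 Plants were grown to the 2-leaf stage and pots flooded to 3 cm above soil. Compounds were applied directly into the paddy water, with depth kept for the test. After 13–15 days in greenhouse, response was rated visually against controls on a 0 (no effect) to 100 (complete control) scale.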

[4] = system: ducksalad (Heteranthera limosa); experiment: Test B flooded paddy: ducksalad; details: Flood; 250 g ai/ha; applied to paddy water at 2-leaf stage; visually evaluated after 13 to 15 days
Summary of the method: as §2

[5] = system: lambsquarters (Chenopodium album); experiment: Test D pre-/postemergence: lambsquarters
Summary of the method: as §1

[6] = system: foxtail, green (green foxtail, Setaria viridis); experiment: Test D pre-/postemergence: foxtail, green
Summary of the method: as §1

[7] = system: sedge, umbrella (small-flower umbrella sedge Cyperus difformis); experiment: Test B flooded paddy: sedge, umbrella; details: Flood; 250 g ai/ha; applied to paddy water at 2-leaf stage; visually evaluated after 13 to 15 days
Summary of the method: as §2

[8] = Postemergence, 31 g ai/ha, scale 0 to 100 (0 no effect, 100 complete control)
[9] = Postemergence, 62 g ai/ha, scale 0 to 100 (0 no effect, 100 complete control)
[10] = Postemergence, 125 g ai/ha, scale 0 to 100, 0 no effect, 100 complete control
[11] = Postemergence, 8 g ai/ha, scale 0 to 100
[12] = Postemergence, 16 g ai/ha, scale 0 to 100
[13] = Postemergence, 250 g ai/ha, scale 0 to 100
[14] = Preemergence, 62 g ai/ha, scale of 0 to 100, 0 is no effect, 100 is complete control
[15] = Preemergence, 125 g ai/ha, scale 0 to 100, 0 no effect, 100 complete control
[16] = Preemergence, 250 g ai/ha, scale 0 to 100, 0 no effect, 100 complete control
[17] = Postemergence, 250 g ai/ha, scale 0 to 100 (0 no effect, 100 complete control)
[18] = Preemergence, 16 g ai/ha, scale 0 to 100 (0 no effect, 100 complete control)
[19] = Preemergence, 31 g ai/ha, scale 0 to 100 (0 no effect, 100 complete control)
[20] = Preemergence, 62 g ai/ha, scale 0 to 100
[21] = Preemergence, 125 g ai/ha, scale 0 to 100
[22] = Preemergence, 250 g ai/ha, scale 0 to 100

## Cc1nn(-c2ccc(F)c(F)c2)nc1Oc1ccnc(C(F)(F)F)c1 [Compound 145]
[1]; [8]
  Plant response rating: Wheat, Spring: 10
[1]; [9]
  Plant response rating: Wheat, Spring: 20
[1]; [10]
  Plant response rating: Wheat, Spring: 25
[1]; [11]
  Plant response rating, Wheat, Spring: 5
[1]; [12]
  Plant response rating, Wheat, Spring: 5
[2]; [8]
  Plant response rating, Bermudagrass: 10
[2]; [9]
  Plant response rating, Bermudagrass: 40
[2]; [10]
  Plant response rating, Bermudagrass: 75
[2]; [13]
  Plant response rating, Bermudagrass: 90
[2]; Preemergence, 31 g ai/ha, scale of 0 to 100, 0 is no effect, 100 is complete control
  Plant response rating, Bermudagrass: 98
[2]; [14]
  Plant response rating, Bermudagrass: 98
[2]; [15]
  Plant response rating, Bermudagrass: 98
[2]; [16]
  Plant response rating, Bermudagrass: 98
[3]
  Plant response rating, Barnyardgrass (0 to 100 scale, 0 is no effect, 100 is complete control): 90
[4]
  Plant response rating, Ducksalad (0 to 100 scale, 0 is no effect, 100 is complete control): 60
[5]; [8]
  Plant response rating: Lambsquarters: 90
[5]; [9]
  Plant response rating: Lambsquarters: 100
[5]; [10]
  Plant response rating: Lambsquarters: 100
[5]; [11]
  Plant response rating, Lambsquarters: 10
[5]; [12]
  Plant response rating, Lambsquarters: 25
[6]; [8]
  Plant response rating: Foxtail, Green: 60
[6]; [9]
  Plant response rating: Foxtail, Green: 100
[6]; [10]
  Plant response rating: Foxtail, Green: 100
[6]; [11]
  Plant response rating, Foxtail, Green: 5
[6]; [12]
  Plant response rating, Foxtail, Green: 5
[7]
  Plant response rating, Sedge, Umbrella (0 to 100 scale, 0 is no effect, 100 is complete control): 85

## CCOc1nn(-c2ccc(F)cc2)nc1Cc1ccnc(C(F)F)c1 [Compound 195]
[1]; [8]
  Plant response rating: Wheat, Spring: 10
[1]; [9]
  Plant response rating: Wheat, Spring: 20
[1]; [10]
  Plant response rating: Wheat, Spring: 25
[1]; [17]
  Plant response rating: Wheat, Spring: 35
[1]; [12]
  Plant response rating, Wheat, Spring: 5
[1]; [18]
  Plant response rating, Wheat, Spring: 0
[1]; [19]
  Plant response rating, Wheat, Spring: 0
[1]; [20]
  Plant response rating, Wheat, Spring: 0
[1]; [21]
  Plant response rating, Wheat, Spring: 0
[1]; [22]
  Plant response rating, Wheat, Spring: 0
[2]; [8]
  Plant response rating, Bermudagrass: 40
[2]; [9]
  Plant response rating, Bermudagrass: 60
[2]; [10]
  Plant response rating, Bermudagrass: 90
[2]; [13]
  Plant response rating, Bermudagrass: 95
[2]; Preemergence, 31 g ai/ha, scale 0 (no effect) to 100 (complete control)
  Plant response rating, Bermudagrass: 98
[2]; [14]
  Plant response rating, Bermudagrass: 98
[2]; [15]
  Plant response rating, Bermudagrass: 98
[2]; [16]
  Plant response rating, Bermudagrass: 98
[3]
  Plant response rating, Barnyardgrass (0 to 100 scale, 0 is no effect, 100 is complete control): 85
[4]
  Plant response rating, Ducksalad (0 to 100 scale, 0 is no effect, 100 is complete control): 100
[5]; [8]
  Plant response rating: Lambsquarters: 75
[5]; [9]
  Plant response rating: Lambsquarters: 80
[5]; [10]
  Plant response rating: Lambsquarters: 95
[5]; [17]
  Plant response rating: Lambsquarters: 100
[5]; [12]
  Plant response rating, Lambsquarters: 60
[5]; [18]
  Plant response rating, Lambsquarters: 0
[5]; [19]
  Plant response rating, Lambsquarters: 0
[5]; [20]
  Plant response rating, Lambsquarters: 0
[5]; [21]
  Plant response rating, Lambsquarters: 30
[5]; [22]
  Plant response rating, Lambsquarters: 75
[6]; [8]
  Plant response rating: Foxtail, Green: 50
[6]; [9]
  Plant response rating: Foxtail, Green: 75
[6]; [10]
  Plant response rating: Foxtail, Green: 100
[6]; [17]
  Plant response rating: Foxtail, Green: 100
[6]; [12]
  Plant response rating, Foxtail, Green: 30
[6]; [18]
  Plant response rating, Foxtail, Green: 15
[6]; [19]
  Plant response rating, Foxtail, Green: 90
[6]; [20]
  Plant response rating, Foxtail, Green: 100
[6]; [21]
  Plant response rating, Foxtail, Green: 100
[6]; [22]
  Plant response rating, Foxtail, Green: 100
[7]
  Plant response rating, Sedge, Umbrella (0 to 100 scale, 0 is no effect, 100 is complete control): 100
